Results from patent publication US20250066389A1, “HETEROCYCLIC AMIDES AND METHODS OF USING THE SAME” (Rgenta Therapeutics, Inc., priority 2021, published 2025).
Where a name gives a salt, the structure may show the parent alone.

Tested on: PMS1
Experiment: Mini-Gene Reporter Assay—PMS1 (firefly luciferase mini-gene reporter transiently transfected into HEK293 cells)
Assay type: cell-based
Conditions: Homo sapiens; mini-gene firefly luciferase reporter in HEK293 cells
Method in brief: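 HEK293 cells transiently transfected with a mini-gene construct (skipped exon with flanking introns/exons fused to firefly luciferase, pcDNA3.1) are incubated with compounds in duplicate. Exon inclusion raises luminescence; EC50 fitted by Levenberg-Marquardt; effect also scored at 5 μM.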

SMILES	IC50 [µM]
CCOc1cc2nc(C)cn2cc1C(=O)Nc1ccc(N2CCNC3(CC3)C2)nn1 [Compound 210, N-(6-4,7-diazaspiro[2.5]octan-7-ylpyridazin-3-yl)-7-ethoxy-2-methylimidazo[1,2-a]pyridine-6-carboxamide]	< 1
Cc1cn2cc(C(=O)Nc3ccc(N4CCN[C@@H](C)C4)nn3)c(OC3CCOCC3)cc2n1 [Compound 211, (S)-2-methyl-N-(6-(3-methylpiperazin-1-yl)pyridazin-3-yl)-7-((tetrahydro-2H-pyran-4-yl)oxy)imidazo[1,2-a]pyridine-6-carboxamide hydrochloride]	10 to 50
Cc1cn2cc(C(=O)Nc3ccc(N4CCN[C@@H](C)C4)nn3)c(O[C@@H]3CCOC3)cc2n1 [Compound 212, 2-methyl-N-(6-((S)-3-methylpiperazin-1-yl)pyridazin-3-yl)-7-((tetrahydrofuran-3-yl)oxy)imidazo[1,2-a]pyridine-6-carboxamide]	1 to 10
Cc1cn2cc(C(=O)Nc3ccc(N4CCN[C@@H](C)C4)nn3)c(O[C@H]3CCOC3)cc2n1 [Compound 213, 2-methyl-N-(6-((S)-3-methylpiperazin-1-yl)pyridazin-3-yl)-7-((tetrahydrofuran-3-yl)oxy)imidazo[1,2-a]pyridine-6-carboxamide]	< 1
CCc1nc(C(=O)Nc2ccc(N3CCN[C@@H](C)C3)nn2)cn2cc(C)nc12 [Compound 214, 8-ethyl-2-methyl-N-{6-[(3S)-3-methylpiperazin-1-yl]pyridazin-3-yl}imidazo[1,2-a]pyrazine-6-carboxamide]	< 1
CCOc1cn2nc(C)cc2cc1C(=O)Nc1ccc(N2CCN[C@@H](C)C2)nn1 [Compound 215, (S)-6-ethoxy-2-methyl-N-(6-(3-methylpiperazin-1-yl)pyridazin-3-yl)pyrazolo[1,5-a]pyridine-5-carboxamide HCl Salt]	< 1
Cc1cn2cc(C(=O)Nc3ccc(N4CCN[C@@H](C)C4)nn3)c(OCC(F)(F)F)cc2n1 [Compound 216, (S)-2-methyl-N-(6-(3-methylpiperazin-1-yl)pyridazin-3-yl)-7-(2,2,2-trifluoroethoxy)imidazo[1,2-a]pyridine-6-carboxamide]	< 1
CCOc1cc2nc(C)cn2cc1C(=O)Nc1ccc(N2CCN[C@@H](C)C2)nn1 [Compound 217, (S)-7-ethoxy-2-methyl-N-(6-(3-methylpiperazin-1-yl)pyridazin-3-yl)imidazo[1,2-a]pyridine-6-carboxamide HCl Salt]	< 1
Cc1cn2cc(C(=O)Nc3ccc(N4CCN[C@@H](C)C4)nn3)c(OC3CCCOC3)cc2n1 (stereo partly drawn) [Compound 218, 2-methyl-N-(6-((S)-3-methylpiperazin-1-yl)pyridazin-3-yl)-7-((tetrahydro-2H-pyran-3-yl)oxy)imidazo[1,2-a]pyridine-6-carboxamide]	1 to 10
Cc1cn2cc(C(=O)Nc3ccc(N4CCNC(C)(C)C4)nn3)c(OC3CCC3)cc2n1 [Compound 219, 7-cyclobutoxy-N-(6-(3,3-dimethylpiperazin-1-yl)pyridazin-3-yl)-2-methylimidazo[1,2-a]pyridine-6-carboxamide]	< 1
CCOc1cc2nn(C)cc2cc1C(=O)Nc1ccc(N2CCNC(C)(C)C2)nn1 [Compound 220, N-(6-(3,3-dimethylpiperazin-1-yl)pyridazin-3-yl)-6-ethoxy-2-methyl-2H-indazole-5-carboxamide hydrochloride]	< 1
CCOc1cc2nc(C)cn2cc1C(=O)Nc1ccc(N2CCNC(C)(C)C2)nn1 [Compound 221, N-(6-(3,3-dimethylpiperazin-1-yl)pyridazin-3-yl)-7-ethoxy-2-methylimidazo[1,2-a]pyridine-6-carboxamide hydrochloride]	< 1
CCOc1cc2nn(C)cc2cc1C(=O)Nc1cc(C)c(N2CCN[C@@H](C)C2)nn1 [Compound 222, (S)-6-ethoxy-2-methyl-N-(5-methyl-6-(3-methylpiperazin-1-yl)pyridazin-3-yl)-2H-indazole-5-carboxamide hydrochloride]	1 to 10
CCOc1nc2nc(C)cn2cc1C(=O)Nc1ccc(N2CCN[C@@H](C)C2)nn1 [Compound 224, (S)-7-ethoxy-2-methyl-N-(6-(3-methylpiperazin-1-yl)pyridazin-3-yl)imidazo[1,2-a]pyrimidine-6-carboxamide hydrochloride]	< 1
CCOc1nc2nn(C)cc2cc1C(=O)Nc1ccc(N2CCN[C@@H](C)C2)nn1 [Compound 225, (S)-6-ethoxy-2-methyl-N-(6-(3-methylpiperazin-1-yl)pyridazin-3-yl)-2H-pyrazolo[3,4-b]pyridine-5-carboxamide hydrochloride]	< 1
CCOc1cc2nc(C)cn2cc1C(=O)Nc1ccc(N2CCC(NC)CC2)nn1 [Compound 226]	1 to 10
CCOc1cc2nc(C)cn2cc1C(=O)Nc1ccc(N2CC(C3CCNC3)C2)nn1 (centres unmarked) [Compound 227]	1 to 10
CCOc1cc2nc(C)cn2cc1C(=O)Nc1ccc(N2CCNC(CC(F)F)C2)nn1 (centres unmarked) [Compound 228]	< 1
CCOc1cc2nc(C)cn2cc1C(=O)Nc1ccc(N2CC3=C(CNC3)C2)nn1 [Compound 229]	< 1

SMILES	IC50 [µM]
CCOc1cc2nc(C)cn2cc1C(=O)Nc1ccc(N2CCNCC3(CC3)C2)nn1 [Compound 230]	1 to 10
CCOc1cc2nc(C)cn2cc1C(=O)Nc1ccc(N2CCNC(CC(F)(F)F)C2)nn1 (centres unmarked) [Compound 231]	1 to 10
CCOc1cc2nc(C)cn2cc1C(=O)Nc1ccc(N2CCC(CNC(C)C)CC2)nn1 [Compound 232]	1 to 10
CCOc1cc2nc(C)cn2cc1C(=O)Nc1ccc(N2CCC(C3CCCN3)C2)nn1 (centres unmarked) [Compound 233]	1 to 10
CCOc1cc2nc(C)cn2cc1C(=O)Nc1ccc(N2CC3C4CCC(NC4)C3C2)nn1 (centres unmarked) [Compound 235]	1 to 10
CCOc1cc2nc(C)cn2cc1C(=O)Nc1ccc(N2CCC3CCCC(C2)N3)nn1 (centres unmarked) [Compound 236]	1 to 10
CCOc1cc2nc(C)cn2cc1C(=O)Nc1ccc(N2CC3CCC2C2CNCC32)nn1 (centres unmarked) [Compound 237]	1 to 10
CCOc1cc2nc(C)cn2cc1C(=O)Nc1ccc(N2C3CCCC2CNC3)nn1 [Compound 238]	1 to 10
CCOc1cc2nc(C)cn2cc1C(=O)Nc1ccc(N2CCC3CCNCC3C2)nn1 (centres unmarked) [Compound 240]	1 to 10
CCOc1cc2nc(C)cn2cc1C(=O)Nc1ccc(N2CC34CCCC3(CNC4)C2)nn1 (centres unmarked) [Compound 242]	1 to 10
CCOc1cc2nc(C)cn2cc1C(=O)Nc1ccc(N2CCNC3CCCCC32)nn1 (centres unmarked) [Compound 243]	1 to 10
CCNC1CCN(c2ccc(NC(=O)c3cn4cc(C)nc4cc3OCC)nn2)C1 (centres unmarked) [Compound 244]	< 1
CCOc1cc2nc(C)cn2cc1C(=O)Nc1ccc(N2CCC(NCCOC)CC2)nn1 [Compound 245]	1 to 10
CCOc1cc2nc(C)cn2cc1C(=O)Nc1ccc(N2C3CCC2CC(NC)C3)nn1 (centres unmarked) [Compound 247]	1 to 10
CCOc1cc2nc(C)cn2cc1C(=O)Nc1ccc(N2CC3CCCC(C2)NC3)nn1 (centres unmarked) [Compound 248]	1 to 10
CCOc1cc2nc(C)cn2cc1C(=O)Nc1ccc(N2CCC(NCC3CC3)CC2)nn1 [Compound 249]	1 to 10
CCOc1cc2nc(C)cn2cc1C(=O)Nc1ccc(N(C)C2CCCNCC2)nn1 (centres unmarked) [Compound 250]	1 to 10
CCNC1CCCN(c2ccc(NC(=O)c3cn4cc(C)nc4cc3OCC)nn2)C1 (centres unmarked) [Compound 251]	1 to 10
CCOc1cc2nc(C)cn2cc1C(=O)Nc1ccc(N2CCCC3(CCNC3)C2)nn1 (centres unmarked) [Compound 254]	10 to 50
